Values of other authors as cited in patent US20130323323A1, “Therapeutic Method and Associated Compound for Augmenting the Liver's Metabolization of Oxygen-Modified Toxins” (priority 2012, published 2013).
Where two headings read alike, the source gives them in different places. Values belong to the compound of their own block, whether it stands above or below them.

Tests used:
[1] = limited supply of oxygen to the liver
[2] = not given; remark: listed apart in the source
[3] = pure oxygen via inhalation; rats, cats, and dogs

Structure (SMILES): Cn1c(=O)c2c(ncn2C)n(C)c1=O [Caffeine]
- time to peak plasma concentration (after ingestion): 30 to 45 min
- bioavailable (in vivo): ~100%

Structure (SMILES): CCO [alcohol, Ethanol]
- rate at which alcohol is metabolized (plateau) [1]: around 0.02 g alcohol/100 ml blood per hour

- solubility of oxygen in water ([2]; 5 degrees Celsius and 1 standard atmosphere): 9 ppm
- solubility of oxygen in water ([2]; 25 degrees Celsius and 1 standard atmosphere): 6 ppm
Structure (SMILES): O=O [oxygen]
- increase in the elimination rate of ethanol [3]: No measurable increase
